Data taken from ChEMBL document CHEMBL5291721, “A preclinical secondary pharmacology resource illuminates target-adverse drug reaction associations of marketed drugs” (Nat Commun, 2023).

Legend:
[1] = target: Acetylcholinesterase (Homo sapiens, UniProt P22303); format: functional
[2] = target: Glutamate receptor ionotropic, NMDA 1 (Rattus norvegicus, UniProt P35439)
[3] = target: T1, Thromboxane A2 receptor (Homo sapiens, UniProt P21731)
T1 sequence (P21731 whole entry): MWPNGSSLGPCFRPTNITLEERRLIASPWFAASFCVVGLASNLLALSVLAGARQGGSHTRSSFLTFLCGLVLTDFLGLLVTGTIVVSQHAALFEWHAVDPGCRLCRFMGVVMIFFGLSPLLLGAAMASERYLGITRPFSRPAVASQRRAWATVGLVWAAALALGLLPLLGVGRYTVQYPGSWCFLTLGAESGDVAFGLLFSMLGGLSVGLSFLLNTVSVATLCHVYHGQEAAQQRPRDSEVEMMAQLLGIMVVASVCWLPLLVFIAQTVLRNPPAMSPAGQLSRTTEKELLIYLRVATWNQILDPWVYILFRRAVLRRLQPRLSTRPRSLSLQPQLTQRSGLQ

[4] = target: T2, Alpha-2A adrenergic receptor (Homo sapiens, UniProt P08913)
T2 sequence (P08913 whole entry): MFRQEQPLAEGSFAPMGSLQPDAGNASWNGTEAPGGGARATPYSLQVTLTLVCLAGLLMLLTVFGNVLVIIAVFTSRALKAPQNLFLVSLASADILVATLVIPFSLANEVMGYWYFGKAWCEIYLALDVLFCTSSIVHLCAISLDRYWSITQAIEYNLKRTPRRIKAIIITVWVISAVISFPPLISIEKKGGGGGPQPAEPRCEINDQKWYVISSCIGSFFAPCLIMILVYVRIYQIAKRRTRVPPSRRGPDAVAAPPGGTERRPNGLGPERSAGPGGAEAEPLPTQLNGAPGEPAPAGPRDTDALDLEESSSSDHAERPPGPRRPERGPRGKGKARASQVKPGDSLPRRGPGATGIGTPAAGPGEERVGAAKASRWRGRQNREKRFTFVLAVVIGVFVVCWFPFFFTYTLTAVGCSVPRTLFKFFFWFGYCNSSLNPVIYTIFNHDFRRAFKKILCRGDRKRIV

[5] = target: T3, Mu-type opioid receptor (Homo sapiens, UniProt P35372); assay: biochemical; format: functional
T3 sequence (P35372 whole entry): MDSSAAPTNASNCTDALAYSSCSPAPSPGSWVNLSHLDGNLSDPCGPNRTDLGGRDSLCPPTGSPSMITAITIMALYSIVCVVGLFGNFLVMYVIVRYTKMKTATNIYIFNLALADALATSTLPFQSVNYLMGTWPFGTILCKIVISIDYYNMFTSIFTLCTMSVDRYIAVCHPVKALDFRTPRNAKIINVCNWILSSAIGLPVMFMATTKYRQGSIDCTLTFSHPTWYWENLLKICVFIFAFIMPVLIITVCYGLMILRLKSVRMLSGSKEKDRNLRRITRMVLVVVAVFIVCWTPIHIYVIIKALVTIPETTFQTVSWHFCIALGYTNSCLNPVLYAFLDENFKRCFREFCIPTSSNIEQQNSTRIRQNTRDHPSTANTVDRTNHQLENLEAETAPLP

[6] = target: D(3) dopamine receptor (Homo sapiens, UniProt P35462)
Sequence of D(3) dopamine receptor (P35462 whole entry): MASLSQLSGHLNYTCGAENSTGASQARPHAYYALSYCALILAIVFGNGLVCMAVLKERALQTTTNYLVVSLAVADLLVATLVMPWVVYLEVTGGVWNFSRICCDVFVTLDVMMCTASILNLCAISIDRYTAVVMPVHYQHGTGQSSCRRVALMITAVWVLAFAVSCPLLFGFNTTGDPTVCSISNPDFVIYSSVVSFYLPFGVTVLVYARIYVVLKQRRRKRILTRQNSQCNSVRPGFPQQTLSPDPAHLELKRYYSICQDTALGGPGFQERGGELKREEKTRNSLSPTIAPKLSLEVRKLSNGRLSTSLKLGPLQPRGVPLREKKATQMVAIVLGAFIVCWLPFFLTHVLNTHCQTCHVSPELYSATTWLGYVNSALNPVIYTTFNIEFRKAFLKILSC

[7] = target: Vasopressin V1a receptor (Homo sapiens, UniProt P37288)
[8] = target: Beta-1 adrenergic receptor (Homo sapiens, UniProt P08588); format: functional
[9] = target: T4, Cannabinoid receptor 1 (Homo sapiens, UniProt P21554)
T4 sequence (P21554 whole entry): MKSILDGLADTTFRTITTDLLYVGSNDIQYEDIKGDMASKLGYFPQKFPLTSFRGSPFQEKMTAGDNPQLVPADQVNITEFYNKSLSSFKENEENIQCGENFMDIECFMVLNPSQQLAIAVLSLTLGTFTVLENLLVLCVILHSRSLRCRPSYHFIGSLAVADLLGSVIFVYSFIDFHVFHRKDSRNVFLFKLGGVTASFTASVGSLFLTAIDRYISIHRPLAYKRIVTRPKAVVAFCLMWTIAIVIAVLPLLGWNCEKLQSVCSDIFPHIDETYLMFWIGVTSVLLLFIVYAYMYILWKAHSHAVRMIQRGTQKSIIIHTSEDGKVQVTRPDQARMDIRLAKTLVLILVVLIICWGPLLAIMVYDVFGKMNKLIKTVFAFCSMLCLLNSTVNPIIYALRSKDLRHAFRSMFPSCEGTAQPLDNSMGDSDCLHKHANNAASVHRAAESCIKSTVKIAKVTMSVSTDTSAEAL

[10] = target: Vascular endothelial growth factor receptor 2 (Homo sapiens, UniProt P35968); format: functional
Sequence of Vascular endothelial growth factor receptor 2 (P35968 whole entry): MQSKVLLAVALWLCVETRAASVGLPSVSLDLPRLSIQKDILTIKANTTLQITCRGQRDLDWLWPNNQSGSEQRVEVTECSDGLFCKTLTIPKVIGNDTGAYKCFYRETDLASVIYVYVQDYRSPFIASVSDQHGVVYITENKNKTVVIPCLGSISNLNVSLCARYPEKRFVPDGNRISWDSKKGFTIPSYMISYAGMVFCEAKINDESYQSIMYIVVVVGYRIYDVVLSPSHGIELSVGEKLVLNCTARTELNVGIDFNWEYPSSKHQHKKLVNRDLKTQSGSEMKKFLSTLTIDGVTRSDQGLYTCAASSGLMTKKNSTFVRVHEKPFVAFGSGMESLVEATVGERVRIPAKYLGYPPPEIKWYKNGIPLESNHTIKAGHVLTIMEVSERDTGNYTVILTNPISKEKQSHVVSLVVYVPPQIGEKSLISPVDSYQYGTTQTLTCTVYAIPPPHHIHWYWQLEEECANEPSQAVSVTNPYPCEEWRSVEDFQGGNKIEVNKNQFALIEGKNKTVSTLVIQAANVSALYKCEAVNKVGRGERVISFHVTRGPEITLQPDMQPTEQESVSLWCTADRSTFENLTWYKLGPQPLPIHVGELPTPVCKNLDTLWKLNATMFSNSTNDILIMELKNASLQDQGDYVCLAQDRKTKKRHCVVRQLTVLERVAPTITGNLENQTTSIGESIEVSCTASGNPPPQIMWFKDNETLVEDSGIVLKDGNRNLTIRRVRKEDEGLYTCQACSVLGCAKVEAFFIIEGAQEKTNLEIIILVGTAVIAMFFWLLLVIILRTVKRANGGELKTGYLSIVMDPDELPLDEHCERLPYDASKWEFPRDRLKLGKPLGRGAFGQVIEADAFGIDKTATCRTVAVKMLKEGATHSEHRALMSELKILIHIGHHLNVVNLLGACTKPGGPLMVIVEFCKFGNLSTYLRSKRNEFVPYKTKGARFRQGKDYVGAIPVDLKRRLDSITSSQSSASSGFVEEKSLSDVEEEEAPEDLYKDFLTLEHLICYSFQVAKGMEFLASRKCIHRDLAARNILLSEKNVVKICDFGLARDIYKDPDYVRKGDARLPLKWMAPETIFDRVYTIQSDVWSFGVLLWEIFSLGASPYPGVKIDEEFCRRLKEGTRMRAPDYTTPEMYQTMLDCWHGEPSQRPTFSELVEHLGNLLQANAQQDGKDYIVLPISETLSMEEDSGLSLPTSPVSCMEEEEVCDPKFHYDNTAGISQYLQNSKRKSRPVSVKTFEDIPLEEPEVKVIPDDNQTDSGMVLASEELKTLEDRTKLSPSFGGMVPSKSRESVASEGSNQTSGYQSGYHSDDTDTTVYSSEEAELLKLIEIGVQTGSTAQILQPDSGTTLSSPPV

[11] = target: T5, Alpha-1A adrenergic receptor (Homo sapiens, UniProt P35348); format: functional, cell-based
T5 sequence (P35348 whole entry): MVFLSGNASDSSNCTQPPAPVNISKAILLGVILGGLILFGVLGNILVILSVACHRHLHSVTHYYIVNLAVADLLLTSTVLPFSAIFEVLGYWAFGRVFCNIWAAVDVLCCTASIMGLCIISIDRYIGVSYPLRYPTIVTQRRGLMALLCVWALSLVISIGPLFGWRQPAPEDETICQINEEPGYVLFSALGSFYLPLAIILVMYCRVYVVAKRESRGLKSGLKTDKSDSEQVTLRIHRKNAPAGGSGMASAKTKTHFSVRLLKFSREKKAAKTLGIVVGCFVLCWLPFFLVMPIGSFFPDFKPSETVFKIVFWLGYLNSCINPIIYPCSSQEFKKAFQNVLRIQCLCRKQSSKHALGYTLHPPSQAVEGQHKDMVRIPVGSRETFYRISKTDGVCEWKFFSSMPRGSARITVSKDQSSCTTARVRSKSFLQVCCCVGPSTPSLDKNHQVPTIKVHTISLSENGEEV

[12] = target: D(1A) dopamine receptor (Homo sapiens, UniProt P21728)
Sequence of D(1A) dopamine receptor (P21728 whole entry): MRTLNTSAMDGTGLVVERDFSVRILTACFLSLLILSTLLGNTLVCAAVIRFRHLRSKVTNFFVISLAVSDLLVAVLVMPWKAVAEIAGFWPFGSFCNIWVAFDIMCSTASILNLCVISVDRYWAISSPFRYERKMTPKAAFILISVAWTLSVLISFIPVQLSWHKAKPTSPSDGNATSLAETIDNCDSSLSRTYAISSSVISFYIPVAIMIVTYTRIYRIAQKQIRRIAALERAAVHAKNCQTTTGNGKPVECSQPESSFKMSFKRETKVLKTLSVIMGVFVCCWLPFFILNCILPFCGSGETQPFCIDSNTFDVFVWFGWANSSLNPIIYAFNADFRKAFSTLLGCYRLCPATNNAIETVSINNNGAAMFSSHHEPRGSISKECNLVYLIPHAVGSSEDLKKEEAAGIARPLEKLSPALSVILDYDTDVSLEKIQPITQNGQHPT

[13] = target: Kappa-type opioid receptor (Homo sapiens, UniProt P41145)
[14] = target: Vasopressin V2 receptor (Homo sapiens, UniProt P30518)
[15] = target: T4, Cannabinoid receptor 1; format: functional, cell-based
[16] = target: T3, Mu-type opioid receptor
[17] = target: Prostaglandin G/H synthase 1 (Homo sapiens, UniProt P23219); format: functional
Sequence of Prostaglandin G/H synthase 1 (P23219 whole entry): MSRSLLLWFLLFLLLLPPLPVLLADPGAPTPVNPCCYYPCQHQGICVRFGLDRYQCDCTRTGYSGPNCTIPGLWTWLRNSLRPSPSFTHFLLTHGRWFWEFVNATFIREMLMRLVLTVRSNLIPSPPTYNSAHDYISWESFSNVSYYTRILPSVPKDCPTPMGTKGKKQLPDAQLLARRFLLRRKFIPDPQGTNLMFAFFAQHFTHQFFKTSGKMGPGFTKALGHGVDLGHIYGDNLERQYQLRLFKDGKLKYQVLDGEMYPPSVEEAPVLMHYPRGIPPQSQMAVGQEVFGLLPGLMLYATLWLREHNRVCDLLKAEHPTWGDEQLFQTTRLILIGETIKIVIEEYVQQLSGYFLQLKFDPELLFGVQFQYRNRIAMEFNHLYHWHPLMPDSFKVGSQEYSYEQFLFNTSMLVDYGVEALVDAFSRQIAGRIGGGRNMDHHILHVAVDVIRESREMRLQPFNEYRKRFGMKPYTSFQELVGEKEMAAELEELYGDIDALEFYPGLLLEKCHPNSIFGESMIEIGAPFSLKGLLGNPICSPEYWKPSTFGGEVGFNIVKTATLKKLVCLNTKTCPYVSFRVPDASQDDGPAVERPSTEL

[18] = target: 5-hydroxytryptamine receptor 2B (Homo sapiens, UniProt P41595); format: functional, cell-based
Sequence of 5-hydroxytryptamine receptor 2B (P41595 whole entry): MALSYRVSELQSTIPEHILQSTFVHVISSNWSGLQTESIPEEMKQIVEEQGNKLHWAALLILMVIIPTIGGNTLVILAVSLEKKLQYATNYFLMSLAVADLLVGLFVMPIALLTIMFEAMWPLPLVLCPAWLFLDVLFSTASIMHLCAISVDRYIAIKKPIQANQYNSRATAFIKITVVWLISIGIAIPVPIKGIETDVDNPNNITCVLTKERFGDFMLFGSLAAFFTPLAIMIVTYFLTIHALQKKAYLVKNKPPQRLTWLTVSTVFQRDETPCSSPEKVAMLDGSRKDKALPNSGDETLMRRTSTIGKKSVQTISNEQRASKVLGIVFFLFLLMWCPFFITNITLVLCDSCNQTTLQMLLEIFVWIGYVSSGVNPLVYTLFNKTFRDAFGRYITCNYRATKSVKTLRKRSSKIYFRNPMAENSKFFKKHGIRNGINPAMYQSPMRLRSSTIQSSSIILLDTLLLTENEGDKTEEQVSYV

[19] = target: T6, Estrogen receptor (Homo sapiens, UniProt P03372)
T6 sequence (P03372 whole entry): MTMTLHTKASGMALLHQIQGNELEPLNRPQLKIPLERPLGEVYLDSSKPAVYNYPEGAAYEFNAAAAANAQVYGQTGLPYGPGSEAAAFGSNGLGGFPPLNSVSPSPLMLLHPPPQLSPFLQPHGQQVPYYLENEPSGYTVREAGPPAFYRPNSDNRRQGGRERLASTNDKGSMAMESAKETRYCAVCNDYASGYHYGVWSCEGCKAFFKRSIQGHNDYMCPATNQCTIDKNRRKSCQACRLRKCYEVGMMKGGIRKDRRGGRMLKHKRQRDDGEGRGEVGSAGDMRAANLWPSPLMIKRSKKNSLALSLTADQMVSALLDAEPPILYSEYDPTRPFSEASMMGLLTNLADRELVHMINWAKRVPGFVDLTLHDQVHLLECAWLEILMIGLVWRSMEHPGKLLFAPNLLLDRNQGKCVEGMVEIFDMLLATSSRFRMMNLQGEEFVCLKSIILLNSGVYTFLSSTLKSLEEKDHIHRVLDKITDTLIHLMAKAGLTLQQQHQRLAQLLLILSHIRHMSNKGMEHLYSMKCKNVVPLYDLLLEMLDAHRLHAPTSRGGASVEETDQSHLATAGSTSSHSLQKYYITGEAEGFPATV

Measured: AC50
Note: assay procedure not described here.

Sequence of Acetylcholinesterase (P22303 whole entry): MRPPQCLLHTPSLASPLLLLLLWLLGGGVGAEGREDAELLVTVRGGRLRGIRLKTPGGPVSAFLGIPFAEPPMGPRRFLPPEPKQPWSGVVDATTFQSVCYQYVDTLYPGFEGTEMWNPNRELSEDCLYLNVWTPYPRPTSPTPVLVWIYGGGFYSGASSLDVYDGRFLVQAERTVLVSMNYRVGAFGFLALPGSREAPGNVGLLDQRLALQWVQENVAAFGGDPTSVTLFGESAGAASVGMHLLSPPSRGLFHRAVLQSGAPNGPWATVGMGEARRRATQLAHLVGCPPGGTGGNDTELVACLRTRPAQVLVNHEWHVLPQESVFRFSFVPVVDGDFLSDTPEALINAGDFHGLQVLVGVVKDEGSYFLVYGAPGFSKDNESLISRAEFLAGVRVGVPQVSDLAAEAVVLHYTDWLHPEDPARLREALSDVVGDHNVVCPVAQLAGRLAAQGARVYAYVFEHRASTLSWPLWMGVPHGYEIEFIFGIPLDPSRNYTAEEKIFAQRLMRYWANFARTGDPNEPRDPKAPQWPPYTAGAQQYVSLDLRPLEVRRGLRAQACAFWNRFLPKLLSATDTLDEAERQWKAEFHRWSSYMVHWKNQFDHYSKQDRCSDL

C[C@H]1O[C@H](O[C@H]2[C@H](O)[C@@H](O)[C@@H](O[C@H]3[C@H](O)[C@@H](O)C(O)O[C@@H]3CO)O[C@@H]2CO)[C@H](O)[C@@H](O)[C@@H]1N[C@H]1C=C(CO)[C@@H](O)[C@H](O)[C@H]1O (stereo partly specified) [ACARBOSE]
> 30 µM: [1] | [3] | [4] | [5] | [6] | [7] | [8] | [10] | [11] | [12] | [14] | [16] | [18]
24.4 µM: [17]
30 µM: [15]
> 10 µM: [2] | [9] | [13]

O=C1c2c(O)c(=O)ccn2N([C@@H]2c3ccccc3SCc3c2ccc(F)c3F)[C@@H]2COCCN12 [BALOXAVIR]
22 µM: [16]
> 30 µM: [1] | [4] | [6] | [10] | [11] | [12] | [17] | [19] | [18]

CCO/N=C(\C(=O)N[C@@H]1C(=O)N2C(C(=O)[O-])=C(Sc3nc(-c4cc[n+](C)cc4)cs3)CS[C@H]12)c1nsc(N)n1 [CEFTAROLINE]
> 30 µM: [1] | [4] | [6] | [10] | [11] | [12] | [16] | [17] | [19] | [18]

C[N+](C)(C)CCCCCCCCCC[N+](C)(C)C [DECAMETHONIUM]
9.15 µM: [1]
> 30 µM: [4] | [6] | [10] | [11] | [12] | [16] | [17] | [19] | [18]

CCOC(=O)c1ccc(O)cc1 [ETHYLPARABEN]
> 1 µM: [17]
> 30 µM: [1] | [4] | [6] | [10] | [11] | [12] | [16] | [19] | [18]

O=C1[C@H](CC[C@H](O)c2ccc(F)cc2)[C@@H](c2ccc(O)cc2)N1c1ccc(F)cc1 [EZETIMIBE]
13.9 µM: [16]
> 30 µM: [1] | [4] | [6] | [10] | [17] | [19] | [18]
9.94 µM: [11]
29.4 µM: [12]

O=C(COc1ccc(Cl)cc1)N1CCN(Cc2ccc3c(c2)OCO3)CC1 [FIPEXIDE]
> 30 µM: [1] | [10] | [11] | [12] | [17] | [19] | [18]
27.1 µM: [6]
11.1 µM: [4]
18.4 µM: [16]

Cc1c(-c2ccccc2)oc2c(C(=O)OCCN3CCCCC3)cccc2c1=O [FLAVOXATE]
17.6 µM: [1]
> 30 µM: [10] | [11] | [12] | [17] | [19] | [18]
13.9 µM: [4]
3.05 µM: [16]
0.88 µM: [6]

CCC(=O)c1c(O)cc(O)cc1O [FLOPROPIONE]
22.3 µM: [17]
> 30 µM: [1] | [4] | [10] | [11] | [12] | [16] | [19] | [18]
12.1 µM: [6]

CC1(C)O[C@@H]2C[C@H]3[C@@H]4C[C@H](F)C5=CC(=O)CC[C@]5(C)[C@H]4[C@@H](O)C[C@]3(C)[C@]2(C(=O)CO)O1 [FLURANDRENOLIDE]
> 30 µM: [1] | [4] | [6] | [10] | [11] | [12] | [16] | [17] | [19] | [18]

C#C[C@]1(O)CC[C@H]2[C@@H]3CCC4=CC(=O)CC[C@@H]4[C@H]3CC[C@@]21CC [LEVONORGESTREL]
> 30 µM: [1] | [4] | [6] | [10] | [11] | [12] | [16] | [17] | [18]
8.65 µM: [19]

OC[C@@H](O)[C@@H](O)[C@H](O)[C@H](O)CO [MANNITOL]
> 30 µM: [1] | [4] | [6] | [10] | [11] | [12] | [16] | [17] | [19] | [18]

CN1CCCC(CN2c3ccccc3Sc3ccccc32)C1 (stereo unspecified) [MEPAZINE]
9.78 µM: [12]
21.6 µM: [17]
6.07 µM: [16]
8.25 µM: [4]
> 30 µM: [1] | [10] | [11] | [19] | [18]

Sc1ncnc2nc[nH]c12 [MERCAPTOPURINE ANHYDROUS]
> 30 µM: [1] | [4] | [6] | [10] | [11] | [12] | [16] | [17] | [19] | [18]

C[N+]1(C)[C@@H]2C[C@@H](OC(=O)[C@H](CO)c3ccccc3)C[C@H]1[C@@H]1O[C@@H]12 [METHSCOPOLAMINE]
> 30 µM: [1] | [4] | [6] | [10] | [11] | [12] | [16] | [17] | [19] | [18]

CC(=O)Oc1c(C)cc(OCC(O)CNC(C)C)c(C)c1C (stereo unspecified) [METIPRANOLOL]
> 30 µM: [1] | [4] | [6] | [10] | [11] | [12] | [16] | [17] | [19] | [18]

CN(C)C(=O)Oc1ccc[n+](C)c1 [PYRIDOSTIGMINE]
> 30 µM: [4] | [6] | [10] | [11] | [12] | [16] | [17] | [19] | [18]
